# Measured values published in US4479941A, “Renin inhibitory peptides having PHE^13 delection” (Merck & Co., Inc., priority 1982, dated 1984).
# Square brackets hold non-standard residues; d marks the D form. Peptide text beside a SMILES is read from it. * marks the point of attachment. Sta = CC(C)C[C@H](N)[C@@H](O)CC(=O)O; X2 = c1ccc(CC(N*)c2ccccc2)cc1; NH(CH2)3Ph = c1ccc(CCCN*)cc1; NHPhenethyl = c1ccc(CCN*)cc1; X5 = c1ccc(CN2CCC(N*)CC2)cc1; Isobutyryl = CC(C)C(=O)*; Boc = CC(C)(C)OC(=O)*; NHBn = c1ccc(CN*)cc1; X3 = OCCN(CCO)CCCN*
# Target: hog kidney renin (Sus scrofa, UniProt A0A287APG1)
# Assay: Hog renin inhibition
# Type: biochemical
# Settings: pH 7.3, read-out: I50 (concentration of peptide inhibitor necessary to produce 50% inhibition of renin activity)
# Protocol: An assay was carried out in order to determine the inhibitory potency of the peptides of the present invention.
# hog kidney renin, sequence (A0A287APG1 67-407): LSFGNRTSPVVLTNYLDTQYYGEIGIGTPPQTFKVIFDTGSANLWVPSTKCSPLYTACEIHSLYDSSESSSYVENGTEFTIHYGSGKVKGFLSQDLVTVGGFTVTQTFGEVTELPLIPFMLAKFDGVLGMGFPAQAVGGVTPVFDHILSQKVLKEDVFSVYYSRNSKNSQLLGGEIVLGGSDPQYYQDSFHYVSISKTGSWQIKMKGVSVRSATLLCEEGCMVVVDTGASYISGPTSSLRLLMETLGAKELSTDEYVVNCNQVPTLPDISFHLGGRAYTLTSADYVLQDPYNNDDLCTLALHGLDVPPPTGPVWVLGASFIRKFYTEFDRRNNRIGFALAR
row,Compound,IC50
1,"CC(C)C[C@H](NC(=O)C[C@H](O)[C@H](CC(C)C)NC(=O)[C@H](Cc1c[nH]cn1)NC(=O)[C@H](Cc1ccccc1)NC(=O)OC(C)(C)C)C(=O)NCc1ccccc1 [BOC--Phe--His--Sta--Leu--benzylamide, BOC--Phe-His-Sta-Leu-benzylamide] (Boc-FH[Sta]L-NHBn)",11 nM
2,"CC(C)C[C@H](NC(=O)C[C@H](O)[C@H](CC(C)C)NC(=O)[C@H](Cc1c[nH]cn1)NC(=O)[C@H](Cc1ccccc1)NC(=O)[C@@H]1CCCN1C(=O)[C@H](Cc1c[nH]cn1)NC(=O)C(C)C)C(=O)NC(Cc1ccccc1)c1ccccc1 (stereo partly drawn) [IBU--His-Pro-Phe-His-Sta-Leu-1,2-diphenylethylamide] (Isobutyryl-HPFH[Sta]L-X2)",5.6 nM
3,"CC(C)C[C@H](NC(=O)C[C@H](O)[C@H](CC(C)C)NC(=O)[C@H](Cc1c[nH]cn1)NC(=O)[C@H](Cc1ccccc1)NC(=O)[C@@H]1CCCN1C(=O)[C@H](Cc1c[nH]cn1)NC(=O)C(C)C)C(=O)NCc1ccccc1 [N-Isobutyryl-L-histidyl-L-prolyl-L-phenylalanyl-L-histidyl-(3S,4S)-statyl-L-leucyl-benzylamide] (Isobutyryl-HPFH[Sta]L-NHBn)",13 nM
4,CC(C)C[C@H](NC(=O)C[C@H](O)[C@H](CC(C)C)NC(=O)[C@H](Cc1c[nH]cn1)NC(=O)[C@H](Cc1ccccc1)NC(=O)[C@@H]1CCCN1C(=O)[C@H](Cc1c[nH]cn1)NC(=O)C(C)C)C(=O)NCCCc1ccccc1 [IBU--His-Pro-Phe-His-Sta-Leu-3-phenylpropylamide] (Isobutyryl-HPFH[Sta]L-{NH(CH2)3Ph}),19 nM
5,"CC(C)C[C@H](NC(=O)C[C@H](O)[C@H](CC(C)C)NC(=O)[C@H](Cc1c[nH]cn1)NC(=O)[C@H](Cc1ccccc1)NC(=O)OC(C)(C)C)C(=O)N[C@@H](CC(C)C)[C@@H](O)CC(=O)O [BOC--Phe--His--Sta--Leu--Sta, BOC--Phe-His-Sta-Leu-Sta] (Boc-FH[Sta]L[Sta]-OH)",36 nM
6,"CC(C)C[C@H](NC(=O)C[C@H](O)[C@H](CC(C)C)NC(=O)[C@H](Cc1c[nH]cn1)NC(=O)[C@H](Cc1ccccc1)NC(=O)OC(C)(C)C)C(=O)NC(C)c1cccc2ccccc12 (single isomer, unassigned) [BOC--Phe-His-Sta-Leu-(+)-α-naphthylethylamide]",11 nM
7,CC(C)C[C@H](NC(=O)C[C@H](O)[C@H](CC(C)C)NC(=O)[C@H](Cc1c[nH]cn1)NC(=O)[C@H](Cc1ccccc1)NC(=O)[C@@H]1CCCN1C(=O)[C@H](Cc1c[nH]cn1)NC(=O)C(C)C)C(=O)NCCc1ccccc1 [IBU--His-Pro-Phe-His-Sta-Leu-2-phenylethylamide] (Isobutyryl-HPFH[Sta]L-NHPhenethyl),30 nM
8,"CC(C)C[C@H](NC(=O)C[C@H](O)[C@H](Cc1ccccc1)NC(=O)[C@H](Cc1c[nH]cn1)NC(=O)[C@H](Cc1ccccc1)NC(=O)OC(C)(C)C)C(=O)NCc1ccccc1 [BOC--Phe--His--AHPPA--Leu--benzylamide, BOC--Phe-His-AHPPA^4 -Lleu-benzylamide]",1.4 nM
9,CC(=O)N[C@@H](Cc1ccccc1)C(=O)N[C@@H](Cc1c[nH]cn1)C(=O)N[C@@H](Cc1ccccc1)[C@@H](O)CC(=O)N[C@@H](CC(C)C)C(=O)NCc1ccccc1 [Acetyl--Phe-His-AHPPA-Leu-benzylamide],3.4 nM

# Target: T1, human kidney renin (Homo sapiens, UniProt P00797)
# T1 construct: human kidney renin purified as described in Bangham; from tissue; host or cells: human kidney
# T1 sequence (P00797 67-406): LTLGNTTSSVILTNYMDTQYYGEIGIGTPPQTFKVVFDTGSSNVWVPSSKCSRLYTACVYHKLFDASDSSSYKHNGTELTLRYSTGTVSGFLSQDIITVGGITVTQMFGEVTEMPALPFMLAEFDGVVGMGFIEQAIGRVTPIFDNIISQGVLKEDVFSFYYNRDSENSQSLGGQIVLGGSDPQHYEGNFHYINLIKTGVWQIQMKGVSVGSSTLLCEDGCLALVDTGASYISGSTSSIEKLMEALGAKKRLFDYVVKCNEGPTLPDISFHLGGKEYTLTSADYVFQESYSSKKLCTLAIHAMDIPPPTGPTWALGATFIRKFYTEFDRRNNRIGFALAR
# Assay: Human renin inhibition
# Type: biochemical
# Settings: purified human kidney renin; read-out: KI (dissociation constant of the inhibited enzyme-inhibitor complex)
# Protocol: An assay was carried out in order to determine the inhibitory potency of the peptides of the present invention. The assay measured the inhibition of human kidney renin purified as described in Bangham, D. R., Robertson, I., Robinson, J. I. S., Robinson, C. J., and Tree, M., Clinical Science and Molecular Medicine, 48 (Supp. 2): 136s-159s (1975), and further purified by affinity chromatography on pepstatin-aminohexyl-Sepharase as described in Poe, M., Wu., J. K., Florance, J. R., Radkey, J. A., Bennett, C. D., and Hoagsteen, K., J. Biol. Chem. (1982, in press). The assay was also in accordance with Poe et al. cited above. Results are expressed as KI values, which refer to the dissociation constant of the inhibited enzyme-inhibitor complex. This KI value was obtained as described above.
row,Compound,Ki
1,CC(C)C[C@H](NC(=O)C[C@H](O)[C@H](CC(C)C)NC(=O)[C@H](Cc1c[nH]cn1)NC(=O)[C@H](Cc1ccccc1)NC(=O)OC(C)(C)C)C(=O)NC1CCN(Cc2ccccc2)CC1 [BOC--Phe-His-Sta-Leu-(4-amido-1-benzylpiperidine)] (Boc-FH[Sta]L-X5),0.06 nM
2,"CC(C)C[C@H](NC(=O)C[C@H](O)[C@H](CC(C)C)NC(=O)[C@H](Cc1c[nH]cn1)NC(=O)[C@H](Cc1ccccc1)NC(=O)[C@@H]1CCCN1C(=O)[C@H](Cc1c[nH]cn1)NC(=O)C(C)C)C(=O)NCc1ccccc1 [N-Isobutyryl-L-histidyl-L-prolyl-L-phenylalanyl-L-histidyl-(3S,4S)-statyl-L-leucyl-benzylamide] (Isobutyryl-HPFH[Sta]L-NHBn)",12 nM
3,CC(C)C[C@H](NC(=O)C[C@H](O)[C@H](CC(C)C)NC(=O)[C@H](Cc1c[nH]cn1)NC(=O)[C@H](Cc1ccccc1)NC(=O)OC(C)(C)C)C(=O)NCCCN(CCO)CCO [BOC--Phe-His-Sta-Leu-[N-(3-amidopropyl)diethanolamine]] (Boc-FH[Sta]L-X3),52 nM

# System: hog renin
# Assay: not given
# Settings: after injection of hog renin into nephrectomized rats (Gross et al. 1971); cited from earlier work
row,Compound,reduction of blood pressure in vivo
1,pepstatin,reduce blood pressure in vivo

# System: aspartyl proteases such as pepsin, cathepsin D, and renin
# Assay: not given
# Settings: other acid proteases; cited from earlier work
row,Compound,inhibition of aspartyl proteases (selectivity)
1,pepstatin,inhibition of a variety of other acid proteases in addition to renin
